According to patent US8343978B2, “Fast onset orodispersable tablets” (Adds Pharmaceuticals LLC, priority 2008, dated 2013):
“Also recorded” adds a separate entry of the source.

Experiments:
[1] = Cloud point (LCST) measurement by spectrophotometry, light transmission at 750 nm; assay type: physicochemical; conditions: 2 wt % hydroxypropylcellulose; for Effect of modifier on the LCST of hydroxypropylcellulose (Klucel EF): 0.2M sodium citrate, 0.2M magnesium sulfate, 0.2M potassium phosphate monobasic, 0.02M calcium sulfate, 1M mannitol, 1M xylitol
Source text: The critical solution temperature of a polymer can be measured by spectrophotometry, by differential scanning calorimetry, or by nuclear magnetic resonance spectroscopy. For example, the spectrophotometrical method can be used to measure the cloud point of an LCST polymer. “Cloud point” generally refers to the temperature where the polymer solution in an aqueous medium becomes cloudy, indicating initiation of precipitation or flocculation of the polymer. The spectrophotometical method, as described as follows, can be adopted to screen various combinations of LCST polymers and modifiers to determine whether a modifier is capable of reducing the LCST of a polymer to about 37° C. or lower.
An LCST polymer is dissolved in distilled water and, optionally, separate solutions of LCST modifiers at various concentrations. Each polymer or polymer/modifier test solution is placed in a separate container, such as a bottle or a beaker, and each container is placed in a water bath. The water bath is equipped with a temperature regulator, and the temperature of the bath is set at approximately 60° C. (the temperature of the bath can start at a high temperature or, alternatively, the temperature of the water bath can start low and be increased gradually at a rate of, e.g., 1° C./min). While in the water bath, each test solution is circulated through a 1-cm flowthrough quartz cuvette using a peristaltic pump (Masterflex) at a flow rate of 50 ml/min. The temperature of the test solution is monitored using a thermocouple, the lead of which is inserted into the test solution in the container. Alternatively, the lead of the thermocouple can be inserted into the cuvette through tubing connecting the container and the cuvette. The light transmission (T %) of each solution is measured spectrophotometrically with a UV spectrophotometer at a wavelength of 750 nm. Initially, spectrophotometric measurements are taken at 2-3° C. intervals. Near the cloud point of a particular polymer or polymer/modifier combination, spectrophotometric measurements are taken more frequently (e.g., at 1 ° C. intervals). The cloud point is ascertained as the temperature at which the light transmission is 90% of the transmission at room temperature.

[2] = Tablet disintegration time in deionized water at 37° C., disintegration tester; assay type: physicochemical; conditions: 500 mg tablets, 1.3 cm diameter; 300 ml DI water at 37° C., 200 rpm paddle; n=3
Protocol: To compare the cohesive properties of the modifiers tested in Example 2, tablets containing 95 wt % of each potential LSCT modifier and 5 wt % of cross-linked sodium carboxylmethylcellulose (Croscarmellose sodium) were tested for their average disintegration time in aqueous medium using a disintegration tester (LIJ-2, Vanguard Pharmaceutical Machinery, Inc. USA). The potential LCST modifier and Croscarmellose sodium were dry-blended in a vial and 500 mg of each blend were compressed under 1 metric ton of compression pressure using a 1.3 cm diameter rounding tool. The resulting tablets were placed into 300 ml of deionized (DI) water (at 37° C., agitated using a 200 rpm paddle) and the disintegration times of the tablets (i.e., the time that it took for each tablet to completely dissolve) were measured. Disintegration times were measured for three tablets of each modifier and average disintegration rates and standard deviates were determined. […]
An orally disintegrating placebo tablet comprising hydroxypropylcellulose as the LCST polymer and calcium sulfate as the modifier was manufactured as follows. […] The mean disintegration time of the tablets (n=3) was 35 seconds, with standard deviation of 4 seconds, as measured in de-ionized water at 37° C. using a disintegration tester (LIJ-2, Vanguard Pharmaceutical Machinery, Inc. USA). […]

| Compound | Effect of modifier on the LCST of hydroxypropylcellulose (Klucel EF) [1] | Disintegration time of tablets of 95 wt % modifier and 5 wt % Croscarmellose sodium [2] | Effect of electrolyte modifier on the LCST of hydroxypropylcellulose, compared at equal concentration ([1]; electrolytes at 0.02M) | Effect of modifier on the LCST of hydroxypropylcellulose (Klucel EF) ([1]; listed as potassium phosphate (monobasic)) |
| --- | --- | --- | --- | --- |
| OC[C@@H](O)[C@H](O)[C@@H](O)CO [xylitol] | significantly reduce the LCST; also recorded: capable of reducing the LCST of hydroxypropylcellulose | – | – | – |
| OC[C@@H](O)[C@@H](O)[C@H](O)[C@H](O)CO [mannitol] | significantly reduce the LCST; also recorded: capable of reducing the LCST of hydroxypropylcellulose | – | – | – |
| O=C([O-])CC(O)(CC(=O)[O-])C(=O)[O-].[Na+].[Na+].[Na+] [sodium citrate] | significantly reduce the LCST; also recorded: capable of reducing the LCST of hydroxypropylcellulose | – | – | – |
| O=S(=O)([O-])[O-].[Ca+2] [calcium sulfate] | significantly reduce the LCST; also recorded: capable of reducing the LCST of hydroxypropylcellulose | one | most effective reducer; also recorded: strongest effect on reducing the LCST | – |
| O=S(=O)([O-])[O-].[Mg+2] [magnesium sulfate] | significantly reduce the LCST; also recorded: capable of reducing the LCST of hydroxypropylcellulose | – | – | – |
| O=P([O-])(O)O.[K+] [potassium phosphate monobasic] | capable of reducing the LCST of hydroxypropylcellulose | one | – | significantly reduce the LCST |
